According to patent US8916551B2, “Heterocyclic compound and use thereof” (Takeda Pharmaceutical Company Limited, priority 2010, dated 2014):

Biological target: T1, AMPA receptor (human GluR1 flip/stargazin expressed in CHO-K1 cells) (Homo sapiens, UniProt P42261)
T1 construct: expressed in transfected cells; host or cells: CHO-K1
Test: AMPA receptor function enhancing activity using calcium influx as index
Type: cell-based
Conditions: 100% = 3 mM glutamic acid + 300 μM cyclothiazide, 0% = 3 mM glutamic acid only
Description: Human GluR1 flip cDNA was amplified by PCR using forward primer […] (SEQ ID NO: 1) and reverse primer […] (SEQ ID NO: 2) artificially synthesized using human brain-derived cDNA (BD Bio science) as a template. The amplified product was digested with restriction enzymes EcoRI, NotI (TAKARA SHUZO CO. LTD.), and incorporated into the same site of pcDNA3.1(+) (Invitrogen) to construct pcDNA3.1(+)/human GluR1 flip gene. Human stargazin cDNA was amplified by PCR using forward primer […] (SEQ ID NO: 3) and reverse primer […] (SEQ ID NO: 4) artificially synthesized using human hippocampus cDNA as a template. The amplified product was digested with restriction enzymes XhoI, BamHI (TAKARA SHUZO CO. LTD.), and incorporated into the same site of pcDNA3.1(−) (Invitrogen) to construct pcDNA3.1 Zeo(−)/human stargazin gene.
CHO-K1 cells passaged in a culture medium (Ham's F12 medium (Invitrogen) added with 10% inactivated fetal bovine serum (Morgate) and penicillin, streptomycin (Invitrogen)) were detached with 0.05% trypsin, 0.53 mM EDTA (Invitrogen) diluted with D-PBS(−). The detached cells were suspended in a culture medium, and recovered by a centrifugation operation at 1,000 rpm. The recovered cells were suspended again in D-PBS(−), and added to a 0.4 cm electroporation cuvette (BioRad). pcDNA3.1(+)/human GluR1 flip gene (5 μg) and pcDNA3.1 Zeo(−)/human stargazin gene (15 μg) were added, and the mixture was introduced into CHO-K1 cells using Gene Pulser II (BioRad) under the conditions of 950 μFd, […]. The introduced cells were cultured overnight in a culture medium and, the next day, plated in a 96 well plate at 250 cells/well using a selection medium (culture medium added with Zeocin (Invitrogen) to 250 μg/mL). Clones showing drug resistance were selected, and GluR1 flip/stargazin expressing clones were selected by an assay method using calcium influx as an index as shown below.
CHO-K1/GluR1 flip/stargazin expressing cells were plated on a 96 well black transparent bottom plate (Costar) at 2×10^4 cells/well, and cultured in a 37° C., CO2 incubator (SANYO Electric Co., Ltd.) for 2 days. The medium in the cell plate was removed, and assay buffer A (D-MEM (Invitrogen), 0.1% BSA (Serogical Protein), 20 mM HEPES (Invitrogen)) was added at 50 μL/well. A calcium indicator (Calcium 4 Assay Kit, Invitrogen) added with 2.5 mM probenecid (Invitrogen) was added at 50 μL/well and the well was left standing in 37° C., CO2 incubator for 1 hr. The cell plate was set in CellLux (PerkinElmer), a mixture (50 μL) of 9 mM glutamic acid diluted with assay buffer B (HBSS (Invitrogen), 0.1% BSA, 20 mM HEPES) (final concentration 3 mM) and a test compound (test compound concentration 30 μM) was added, and the amount of change in fluorescence level in 3 min was measured. In the definition here, the amount of change in fluorescence level of well added with glutamic acid at final concentration 3 mM and 300 μM cyclothiazide (TOCRIS) is 100%, the amount of change in fluorescence level of well added only with glutamic acid at final concentration 3 mM is 0%, and the compound activity was calculated according to the following formula. activity(%)=(X−C)/(T−C)×100 T: amount of change in fluorescence level of well added with glutamic acid at final concentration 3 mM and 300 μM cyclothiazide C: amount of change in fluorescence level of well added only with glutamic acid at final concentration 3 mM X: amount of change in fluorescence level of well added with test compound

[1] = test compound 30 μM with 3 mM glutamic acid, change in fluorescence level in 3 min
[2] = test compound 30 μM with glutamic acid final 3 mM, change in fluorescence in 3 min

T1 sequence (P42261 19-906 isoform P42261-2 limits assumed): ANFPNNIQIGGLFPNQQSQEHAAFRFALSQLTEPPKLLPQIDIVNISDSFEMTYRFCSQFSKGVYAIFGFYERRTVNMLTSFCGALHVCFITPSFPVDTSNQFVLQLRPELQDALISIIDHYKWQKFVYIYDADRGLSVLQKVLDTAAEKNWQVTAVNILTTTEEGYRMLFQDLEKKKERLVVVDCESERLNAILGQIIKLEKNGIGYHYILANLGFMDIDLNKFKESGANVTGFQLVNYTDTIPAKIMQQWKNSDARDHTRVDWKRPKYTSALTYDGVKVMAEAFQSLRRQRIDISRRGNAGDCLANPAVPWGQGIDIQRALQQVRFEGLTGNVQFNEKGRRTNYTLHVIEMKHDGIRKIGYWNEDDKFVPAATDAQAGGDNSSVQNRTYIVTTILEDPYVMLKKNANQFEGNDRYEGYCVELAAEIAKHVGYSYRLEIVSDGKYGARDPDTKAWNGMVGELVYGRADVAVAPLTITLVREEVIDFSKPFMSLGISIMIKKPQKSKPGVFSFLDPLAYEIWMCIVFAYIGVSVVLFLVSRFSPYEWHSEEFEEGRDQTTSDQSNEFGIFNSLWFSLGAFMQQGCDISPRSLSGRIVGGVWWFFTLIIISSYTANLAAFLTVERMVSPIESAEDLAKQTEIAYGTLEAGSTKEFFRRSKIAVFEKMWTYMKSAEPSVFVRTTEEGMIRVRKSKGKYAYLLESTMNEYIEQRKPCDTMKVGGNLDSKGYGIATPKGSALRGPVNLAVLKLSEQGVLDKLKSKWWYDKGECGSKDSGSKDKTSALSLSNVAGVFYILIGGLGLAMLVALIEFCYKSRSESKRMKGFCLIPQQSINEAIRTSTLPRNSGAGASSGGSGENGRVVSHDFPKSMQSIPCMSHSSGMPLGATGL
T1 sequence (Q9Y698 whole entry partner): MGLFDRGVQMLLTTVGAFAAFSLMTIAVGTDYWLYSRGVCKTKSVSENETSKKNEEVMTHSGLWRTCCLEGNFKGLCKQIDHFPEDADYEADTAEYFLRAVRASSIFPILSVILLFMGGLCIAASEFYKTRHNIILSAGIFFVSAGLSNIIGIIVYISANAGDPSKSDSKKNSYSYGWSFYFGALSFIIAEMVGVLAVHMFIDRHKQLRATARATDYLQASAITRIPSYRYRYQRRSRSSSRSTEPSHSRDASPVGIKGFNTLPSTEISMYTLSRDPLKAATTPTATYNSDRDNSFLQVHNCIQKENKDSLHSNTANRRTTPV

Row | Structure (SMILES) | activity (%) [1] [%] | activity (%) [2] [%]
1 | CC(F)(F)c1ccc(C2CCCN3CCS(=O)(=O)N=C23)cc1 (stereo not drawn) [Example 231, 9-[4-(1,1-difluoroethyl)phenyl]-3,4,6,7,8,9-hexahydropyrido[2,1-c][1,2,4]thiadiazine 2,2-dioxide] | 78 | –
2 | CCCCn1ccc2cc(C3CCCN4CCS(=O)(=O)N=C34)ccc21 (stereo not drawn) [Example 294, 9-(1-butyl-1H-indol-5-yl)-3,4,6,7,8,9-hexahydropyrido[2,1-c][1,2,4]thiadiazine 2,2-dioxide] | – | 82
3 | O=S1(=O)CCN2CCCC(c3ccc(-n4nc(C(F)(F)F)cc4C4CC4)cc3)C2=N1 (stereo not drawn) [Example 301, 9-{4-[5-cyclopropyl-3-(trifluoromethyl)-1H-pyrazol-1-yl]phenyl}-3,4,6,7,8,9-hexahydropyrido[2,1-c][1,2,4]thiadiazine 2,2-dioxide] | – | 76
4 | O=S1(=O)CCN2C=CC=C(c3ccc(-n4nc(C(F)(F)F)cc4C4CC4)cc3)C2=N1 [Example 299, 9-{4-[5-cyclopropyl-3-(trifluoromethyl)-1H-pyrazol-1-yl]phenyl}-3,4-dihydropyrido[2,1-c][1,2,4]thiadiazine 2,2-dioxide] | – | 88
5 | Cc1cc(C(F)(F)F)nn1-c1ccc(C2=CC=CN3CCS(=O)(=O)N=C23)cc1 [Example 300, 9-{4-[5-methyl-3-(trifluoromethyl)-1H-pyrazol-1-yl]phenyl}-3,4-dihydropyrido[2,1-c][1,2,4]thiadiazine 2,2-dioxide] | – | 93
6 | Cc1ccc(C2=CC=CN3CCS(=O)(=O)N=C23)cc1F [Example 423, 9-(3-fluoro-4-methylphenyl)-3,4-dihydropyrido[2,1-c][1,2,4]thiadiazine 2,2-dioxide] | – | 80
7 | CC1CC(c2ccc(Oc3cccc(C(C)(F)F)c3)cc2)C2=NS(=O)(=O)CCN2C1 (racemic) [Example 172, 9-{4-[3-(1,1-difluoroethyl)phenoxy]phenyl}-7-methyl-3,4,6,7,8,9-hexahydropyrido[2,1-c][1,2,4]thiadiazine 2,2-dioxide] | 74 | –
8 | O=S1(=O)CCN2C=CC=C(c3ccc(C4(F)COC4)cc3)C2=N1 [Example 396, 9-[4-(3-fluorooxetan-3-yl)phenyl]-3,4-dihydropyrido[2,1-c][1,2,4]thiadiazine 2,2-dioxide] | – | 82
9 | COc1ccc2ccc(OC3CCCN4CCS(=O)(=O)N=C34)cc2c1 (stereo not drawn) [Example 60, 9-[(7-methoxynaphthalen-2-yl)oxy]-3,4,6,7,8,9-hexahydropyrido[2,1-c][1,2,4]thiadiazine 2,2-dioxide] | – | 63
10 | O=S1(=O)CCN2C=CC=C(c3ccc(Oc4cnccc4C(F)(F)F)cc3)C2=N1 [Example 255, 9-(4-{[4-(trifluoromethyl)pyridin-3-yl]oxy}phenyl)-3,4-dihydropyrido[2,1-c][1,2,4]thiadiazine 2,2-dioxide] | 84 | –
11 | O=S1(=O)CCN2C=CC=C(c3ccc(Oc4ccc5c(c4)OCC5)cc3)C2=N1 [Example 313, 9-[4-(2,3-dihydro-1-benzofuran-6-yloxy)phenyl]-3,4-dihydropyrido[2,1-c][1,2,4]thiadiazine 2,2-dioxide] | – | 95
12 | O=S1(=O)CCN2C=CC=C(c3ccc(Oc4cccc(Cl)c4)cc3)C2=N1 [Example 85, 9-[4-(3-chlorophenoxy)phenyl]-3,4-dihydropyrido[2,1-c][1,2,4]thiadiazine 2,2-dioxide] | – | 84
13 | O=S1(=O)CCN2CCCC(COc3ccc4c(c3)CCCC4)C2=N1 (stereo not drawn) [Example 303, 9-[(5,6,7,8-tetrahydronaphthalen-2-yloxy)methyl]-3,4,6,7,8,9-hexahydropyrido[2,1-c][1,2,4]thiadiazine 2,2-dioxide] | – | 82

Results, then the compound that gave them:

Row | activity (%) [1] [%] | activity (%) [2] [%] | Structure (SMILES)
14 | 85 | – | O=S1(=O)CCN2CCC[C@@H](c3ccc(Oc4cccc(Cl)c4)cc3)C2=N1 [Example 203, (9S)-9-[4-(3-chlorophenoxy)phenyl]-3,4,6,7,8,9-hexahydropyrido[2,1-c][1,2,4]thiadiazine 2,2-dioxide]
15 | – | 92 | Cc1cccc(Oc2ccc(C3CCCN4CCS(=O)(=O)N=C34)cc2)c1 (stereo not drawn) [Example 119, 9-[4-(3-methylphenoxy)phenyl]-3,4,6,7,8,9-hexahydropyrido[2,1-c][1,2,4]thiadiazine 2,2-dioxide]
16 | 70 | – | O=S1(=O)CCN2CCCC(c3ccc(Oc4ccc(Br)c(C(F)(F)F)c4)cc3)C2=N1 (stereo not drawn) [Example 142, 9-{4-[4-bromo-3-(trifluoromethyl)phenoxy]phenyl}-3,4,6,7,8,9-hexahydropyrido[2,1-c][1,2,4]thiadiazine 2,2-dioxide]
17 | – | 98 | COc1cccc(-c2ccc(C3CCCN4CCS(=O)(=O)N=C34)cc2)c1 (stereo not drawn) [Example 106, 9-(3′-methoxybiphenyl-4-yl)-3,4,6,7,8,9-hexahydropyrido[2,1-c][1,2,4]thiadiazine 2,2-dioxide]
18 | 80 | – | O=S1(=O)CCN2CCCC(c3ccc(Oc4ccc(Cl)c(Cl)c4)cc3)C2=N1 (stereo not drawn) [Example 152, 9-[4-(3,4-dichlorophenoxy)phenyl]-3,4,6,7,8,9-hexahydropyrido[2,1-c][1,2,4]thiadiazine 2,2-dioxide]
19 | 76 | – | Cc1cc(F)ccc1Oc1ccc(C2CCCN3CCS(=O)(=O)N=C23)cc1 (stereo not drawn) [Example 144, 9-[4-(4-fluoro-2-methylphenoxy)phenyl]-3,4,6,7,8,9-hexahydropyrido[2,1-c][1,2,4]thiadiazine 2,2-dioxide]
20 | 79 | – | O=S1(=O)CCN2CCCC(c3ccc(-n4cccn4)cc3)C2=N1 (stereo not drawn) [Example 290, 9-[4-(1H-pyrazol-1-yl)phenyl]-3,4,6,7,8,9-hexahydropyrido[2,1-c][1,2,4]thiadiazine 2,2-dioxide]
21 | – | 81 | O=S1(=O)CCN2CCCC(c3ccc(Oc4ccccc4)cc3)C2=N1 (stereo not drawn) [Example 43, 9-(4-phenoxyphenyl)-3,4,6,7,8,9-hexahydropyrido[2,1-c][1,2,4]thiadiazine 2,2-dioxide]
22 | – | 86 | Cc1cc(Oc2ccc(C3CCCN4CCS(=O)(=O)N=C34)cc2)ccc1F (stereo not drawn) [Example 113, 9-[4-(4-fluoro-3-methylphenoxy)phenyl]-3,4,6,7,8,9-hexahydropyrido[2,1-c][1,2,4]thiadiazine 2,2-dioxide]
23 | 63 | – | COc1cc(Oc2ccc(C3CCCN4CCS(=O)(=O)N=C34)cc2)ccc1Cl (stereo not drawn) [Example 155, 9-[4-(4-chloro-3-methoxyphenoxy)phenyl]-3,4,6,7,8,9-hexahydropyrido[2,1-c][1,2,4]thiadiazine 2,2-dioxide]
24 | – | 87 | Cc1ccc(-c2ccc(C3CCCN4CCS(=O)(=O)N=C34)cc2)cc1 (stereo not drawn) [Example 105, 9-(4′-methylbiphenyl-4-yl)-3,4,6,7,8,9-hexahydropyrido[2,1-c][1,2,4]thiadiazine 2,2-dioxide]
25 | 87 | – | CC1CC(c2ccc(Oc3cccc(C(C)(F)F)c3)cc2)C2=NS(=O)(=O)CCN2C1 (stereo not drawn) [Example 171, 9-{4-[3-(1,1-difluoroethyl)phenoxy]phenyl}-7-methyl-3,4,6,7,8,9-hexahydropyrido[2,1-c][1,2,4]thiadiazine 2,2-dioxide]
26 | – | 78 | O=S1(=O)CCN2CCCC(c3ccc(Oc4ccc(F)c(Cl)c4)cc3)C2=N1 (stereo not drawn) [Example 447, 9-[4-(3-chloro-4-fluorophenoxy)phenyl]-3,4,6,7,8,9-hexahydropyrido[2,1-c][1,2,4]thiadiazine 2,2-dioxide]
27 | – | 68 | Cc1ccc(Oc2ccc(C3CCCN4CCS(=O)(=O)N=C34)cc2)cc1 (stereo not drawn) [Example 108, 9-[4-(4-methylphenoxy)phenyl]-3,4,6,7,8,9-hexahydropyrido[2,1-c][1,2,4]thiadiazine 2,2-dioxide]
